The values below come from ChEMBL document CHEMBL1201862, “PubChem BioAssay data set” (2004).

Test systems include Hs-578T; MCF7; BT-549; SNB-19; SK-OV-3; OVCAR-3; DU-145; UACC-257; SK-MEL-5; TK-10; HOP-92; EKVX; SF-268; NCI-H226; OVCAR-5; PC-3; K562; SW-620; KM12; UACC-62.
Test in all cases: NCI-60 cell line screen, 48 h

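In this assay, cells in 96-well plates receive the compound at five concentrations for 48 hours. Endpoints are linearly interpolated between the surrounding concentrations. GI50 is the concentration that inhibits growth by half.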 Calls of active or inactive are those of the source. Cut-off read from the data, not from the text of the source: active = GI50 up to about 1.1 µM and inactive = higher.

Regarding `CC(C)C(Br)CCC1=CCC(Br)(Br)C1` (stereo unspecified), the GI50 in the experiment with Hs-578T was 18.6 µM (inactive); in the experiment with MCF7, 10.8 µM (inactive); in the experiment on BT-549, 20.2 µM (inactive); in the experiment with SNB-19, 18 µM (inactive); in the experiment on SK-OV-3 it was 13.1 µM (inactive); in the experiment with OVCAR-3 it was 13 µM (inactive). The GI50 in the experiment with DU-145 is 18.4 µM (inactive); in the experiment on UACC-257, 14.5 µM (inactive); with SK-MEL-5 it was 5.45 µM (inactive); with TK-10 it was 17.5 µM (inactive); in the experiment on HOP-92, 5.2 µM (inactive); in the experiment with EKVX it was 17.9 µM (inactive). For the same compound, the GI50 is 16.8 µM (inactive) in the experiment with SF-268; 11.9 µM (inactive) with NCI-H226; 16.7 µM (inactive) with OVCAR-5; 14.9 µM (inactive) in the experiment with PC-3; 4.57 µM (inactive) in the experiment with K562; 3.52 µM (inactive) with SW-620. The GI50 was 13.3 µM (inactive) in the experiment on KM12 and 6.58 µM (inactive) in the experiment with UACC-62.

For `S=c1[nH]nc(Cc2ccccc2)c(=S)[nH]1`, the GI50 in the experiment with Hs-578T was 33 µM (inactive); in the experiment on MCF7, 55.8 µM (inactive); in the experiment with BT-549, 35.2 µM (inactive); in the experiment on SNB-19, > 87.9 µM (inactive); in the experiment with SK-OV-3, > 81.5 µM (inactive); with OVCAR-3 it was > 61.7 µM (inactive). Besides, the GI50 with DU-145 is 61.9 µM (inactive); in the experiment with UACC-257, > 56.8 µM (inactive); with SK-MEL-5, 46.7 µM (inactive); in the experiment on TK-10, > 56 µM (inactive); in the experiment on HOP-92 it was 23.3 µM (inactive); in the experiment with SF-268 it was 4.63 µM (inactive). The GI50 was > 95.3 µM (inactive) in the experiment on NCI-H226; > 50.2 µM (inactive) with OVCAR-5; 24.9 µM (inactive) with PC-3; 61.1 µM (inactive) with K562; > 100 µM (inactive) in the experiment on SW-620; > 79.8 µM (inactive) with KM12. For the same compound, the GI50 with UACC-62 was > 25.9 µM (inactive).

With `CC(=O)Nc1ncc(Sc2ccccc2C(=O)O)s1`, the GI50 in the experiment with Hs-578T, in the experiment with MCF7, with BT-549, in the experiment with SNB-19, in the experiment on OVCAR-3 and with DU-145 was > 100 µM (inactive) each time. For the same compound, the GI50 in the experiment on UACC-257, in the experiment on SK-MEL-5, in the experiment on TK-10, in the experiment with HOP-92, in the experiment on EKVX and in the experiment on SF-268 was > 100 µM (inactive) in each case. The GI50 with NCI-H226, in the experiment with OVCAR-5, in the experiment with PC-3, with K562, with SW-620 and in the experiment with KM12 was > 100 µM (inactive) each time. Also, in the experiment on UACC-62, the GI50 was > 100 µM (inactive).

Consider `CCC(=O)/C(=C\I)c1ccccc1`, for which the GI50 in the experiment on Hs-578T was 5.2 µM (inactive); in the experiment with MCF7, 1.67 µM (inactive); in the experiment on BT-549 it was 1.79 µM (inactive); with SNB-19 it was 15.3 µM (inactive); in the experiment with SK-OV-3, 16.6 µM (inactive); with OVCAR-3, 1.67 µM (inactive). Moreover, the GI50 in the experiment on DU-145 was 7.19 µM (inactive); with UACC-257, 3.55 µM (inactive); in the experiment on TK-10 it was 15 µM (inactive); with HOP-92 it was 2.16 µM (inactive); with EKVX it was 19.2 µM (inactive); in the experiment on SF-268 it was 16.7 µM (inactive). The GI50 in the experiment with NCI-H226 was 23.4 µM (inactive); in the experiment with OVCAR-5, 1.84 µM (inactive); with PC-3, 3.01 µM (inactive); in the experiment on K562, 0.796 µM (active); in the experiment on SW-620 it was 1.58 µM (inactive); in the experiment on KM12, 6.56 µM (inactive). Besides, the GI50 in the experiment on UACC-62 is 2.49 µM (inactive).

With `COc1ccc(/C=C2\N=C(N3CCCC(CO)C3)NC2=O)cc1` (stereo unspecified), the GI50 with Hs-578T, with MCF7, in the experiment on BT-549, in the experiment on SNB-19, with SK-OV-3 and in the experiment on OVCAR-3 was > 100 µM (inactive) throughout. The GI50 in the experiment with DU-145, with UACC-257, with SK-MEL-5, in the experiment with TK-10, with HOP-92 and with EKVX was > 100 µM (inactive) throughout. Moreover, the GI50 in the experiment with SF-268, in the experiment on NCI-H226, in the experiment with OVCAR-5, with PC-3, with SW-620 and with KM12 was > 100 µM (inactive) in each case. Also, in the experiment with UACC-62, the GI50 is > 100 µM (inactive).

With `NC(=O)NC(=O)c1cccc(NC(=O)CCl)c1`, the GI50 in the experiment on Hs-578T was 3.9 µM (inactive); in the experiment on MCF7 it was 0.989 µM (active); in the experiment on BT-549, 1.41 µM (inactive); in the experiment with SK-OV-3 it was 1.45 µM (inactive); in the experiment on OVCAR-3, 0.223 µM (active); with DU-145, 1.36 µM (inactive). Also, the GI50 with UACC-257 was 1.19 µM (inactive); in the experiment with SK-MEL-5 it was 0.71 µM (active); with TK-10, 1.35 µM (inactive); in the experiment on HOP-92 it was 4.34 µM (inactive); in the experiment with EKVX it was 7.01 µM (inactive); in the experiment with SF-268, 1.91 µM (inactive). Further, the GI50 is 2.19 µM (inactive) in the experiment on NCI-H226; 1.65 µM (inactive) in the experiment on OVCAR-5; 1.08 µM (active) in the experiment on PC-3; 0.714 µM (active) in the experiment with K562; 0.621 µM (active) with SW-620; 0.579 µM (active) in the experiment with KM12. The GI50 in the experiment on UACC-62 is 0.687 µM (active).

Turning to `N#Cc1c(-c2ccccc2)cc(-c2ccc(Cl)cc2)[nH]c1=S`, the GI50 in the experiment on Hs-578T is 38.8 µM (inactive); in the experiment on MCF7, 23.4 µM (inactive); in the experiment on BT-549 it was 41.5 µM (inactive); in the experiment on SNB-19, 32.8 µM (inactive); in the experiment with SK-OV-3, 27.4 µM (inactive); in the experiment on OVCAR-3 it was 38.8 µM (inactive). The GI50 is 53.6 µM (inactive) in the experiment with DU-145; 17.7 µM (inactive) with SK-MEL-5; 45.9 µM (inactive) with TK-10; 65.9 µM (inactive) with HOP-92; 30.4 µM (inactive) in the experiment with EKVX; 41.3 µM (inactive) with SF-268. The GI50 with NCI-H226 is 25.6 µM (inactive); in the experiment on OVCAR-5, 62.4 µM (inactive); in the experiment with PC-3 it was 27.1 µM (inactive); in the experiment with K562, 34 µM (inactive); in the experiment with SW-620 it was 28.4 µM (inactive); in the experiment on KM12, 58.5 µM (inactive). For the same compound, the GI50 in the experiment on UACC-62 is 27.9 µM (inactive).

As to `CCOC(=O)/C(C(=O)Nc1cccc(C(F)(F)F)c1)=C(/N)N1CCOCC1`, the GI50 in the experiment with Hs-578T, with MCF7, in the experiment on BT-549, with SNB-19, with SK-OV-3 and with OVCAR-3 was > 100 µM (inactive) throughout. Besides, the GI50 in the experiment with DU-145, with UACC-257, with TK-10, with HOP-92, in the experiment with EKVX and in the experiment on SF-268 was > 100 µM (inactive) in each case. Moreover, the GI50 is 86.9 µM (inactive) in the experiment with NCI-H226; > 100 µM (inactive) with OVCAR-5; > 100 µM (inactive) with PC-3; > 100 µM (inactive) in the experiment with K562; > 100 µM (inactive) in the experiment on SW-620; > 100 µM (inactive) in the experiment with KM12. For the same compound, the GI50 in the experiment with UACC-62 was > 100 µM (inactive).

For the compound `CN(CCc1ccc(Br)cc1)CCN1CCCCC1`, the GI50 in the experiment with Hs-578T is 19.7 µM (inactive); with MCF7, 21.7 µM (inactive); in the experiment with BT-549, 24.8 µM (inactive); in the experiment with SNB-19 it was > 100 µM (inactive); with SK-OV-3, 55.8 µM (inactive); in the experiment on OVCAR-3, 36.6 µM (inactive). Further, the GI50 with DU-145 is 99.5 µM (inactive); in the experiment with UACC-257, 36.3 µM (inactive); in the experiment on SK-MEL-5 it was 14.9 µM (inactive); in the experiment with TK-10, 71.3 µM (inactive); with HOP-92, 17.7 µM (inactive); in the experiment with EKVX, > 100 µM (inactive). For the same compound, the GI50 in the experiment on SF-268 is 65.3 µM (inactive); in the experiment on NCI-H226, 33.4 µM (inactive); in the experiment with OVCAR-5, 41 µM (inactive); with PC-3, 27.2 µM (inactive); in the experiment on K562 it was 15.1 µM (inactive); with SW-620, 33.5 µM (inactive). Further, the GI50 with KM12 is 21.1 µM (inactive).

For `C=C(C)[C@@]12C[C@H](OC(=O)[C@H](O)[C@@H](NC(=O)c3ccccc3)c3ccccc3)C(C)=C1[C@@H](OC(C)=O)C(=O)[C@@]1(C)C([C@@H]2OC(=O)c2cc(F)cc(F)c2)C2(OC(C)=O)CO[C@@H]2C[C@@H]1O` (stereo partly specified), the GI50 in the experiment on Hs-578T is 0.0186 µM (active); in the experiment with MCF7 it was 0.029 µM (active); in the experiment on BT-549, 0.194 µM (active); in the experiment on SNB-19, 0.238 µM (active); with SK-OV-3, 0.417 µM (active); with OVCAR-3 it was 0.122 µM (active). Besides, the GI50 in the experiment on DU-145 is 0.267 µM (active); in the experiment with UACC-257, 0.0796 µM (active); with SK-MEL-5, 0.117 µM (active); in the experiment with TK-10, 0.3 µM (active); with HOP-92 it was 2.4 µM (inactive); in the experiment with EKVX it was 1.02 µM (active). Further, the GI50 in the experiment on SF-268 is 0.161 µM (active); in the experiment with NCI-H226, 0.883 µM (active); in the experiment on OVCAR-5, 0.165 µM (active); in the experiment with PC-3, 0.0826 µM (active); in the experiment with K562, 0.0361 µM (active); in the experiment on SW-620 it was 0.0505 µM (active). In the experiment on UACC-62, the GI50 is 0.076 µM (active).
